Measured values: PubChem BioAssay AID264 (DTP/NCI, 2004)
Inconclusive results are not listed. Bridge positions count the residues as written; N and C are the ends. Square brackets hold non-standard residues; d marks the D form. Peptide text beside a SMILES is read from it. I, II: the chains in the order shown. * marks the point of attachment. Quinoxaline2carbonyl = O=C(c1cnc2ccccc2n1)*; NMeV = CN[CH](C(=O)O)C(C)C; NMeC = CN[CH](CS)C(=O)O

Tested on: nude mice, LX-1 lung xenograft intrarenal, tumor weight T/C
Test: NCI In Vivo Anticancer Drug Screen. Data for tumor model Human Lung LX-1 Xenograft (intrarenal inoculation) in NU/NU Swiss (nude) mice
Conditions: endpoint: mean tumor weight change, higher = larger tumour
Outline: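 In vivo, transplantable tumor; compound vs vehicle arms; tumor size measured; value = T/C.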

[1] = dose: 300.0 mg/kg/injection, schedule: Q04DX003 (sc), vehicle: saline
[2] = dose: 600.0 mg/kg/injection, schedule: Q04DX003 (sc), vehicle: saline
[3] = dose: 1200.0 mg/kg/injection, schedule: Q04DX003 (sc), vehicle: saline
[4] = dose: 50.0 mg/kg/injection, schedule: Q01DX010 (sc), vehicle: Klucel (hydroxypropylcellulose) (HPC)
[5] = dose: 75.0 mg/kg/injection, schedule: Q04DX003 (sc), vehicle: Klucel (hydroxypropylcellulose) (HPC)
[6] = dose: 150.0 mg/kg/injection, schedule: Q04DX003 (sc), vehicle: Klucel (hydroxypropylcellulose) (HPC)
[7] = dose: 300.0 mg/kg/injection, schedule: Q04DX003 (sc), vehicle: Klucel (hydroxypropylcellulose) (HPC)
[8] = dose: 600.0 mg/kg/injection, schedule: Q04DX003 (sc), vehicle: Klucel (hydroxypropylcellulose) (HPC)
[9] = dose: 12.5 mg/kg/injection, schedule: Q04DX003 (sc), vehicle: saline
[10] = dose: 75.0 mg/kg/injection, schedule: Q04DX003 (sc), vehicle: saline with Tween-80
[11] = dose: 150.0 mg/kg/injection, schedule: Q04DX003 (sc), vehicle: saline with Tween-80
[12] = dose: 300.0 mg/kg/injection, schedule: Q04DX003 (sc), vehicle: saline with Tween-80
[13] = dose: 600.0 mg/kg/injection, schedule: Q04DX003 (sc), vehicle: saline with Tween-80
[14] = dose: 1200.0 mg/kg/injection, schedule: Q04DX003 (sc), vehicle: saline with Tween-80

NC(=O)c1ncn(C2OC(CO)C(O)C2O)n1 (centres undefined)
T/C [1]: 85 % of control | T/C [2]: 95 % of control | T/C [3]: 42 % of control

CC1CN=C(c2ccc(NC(=O)c3ccc(C(=O)Nc4ccc(C5=NCC(C)N5)cc4)cc3)cc2)N1 (centres undefined)
T/C [4]: 213 % of control | T/C (dose: 100.0 mg/kg/injection, schedule: Q01DX010 (sc), vehicle: Klucel (hydroxypropylcellulose) (HPC)): 68 % of control | T/C (dose: 200.0 mg/kg/injection, schedule: Q01DX010 (sc), vehicle: Klucel (hydroxypropylcellulose) (HPC)): 94 % of control | T/C (dose: 400.0 mg/kg/injection, schedule: Q01DX010 (sc), vehicle: Klucel (hydroxypropylcellulose) (HPC)): 84 % of control

CC1NC(=O)C(NC(=O)c2cnc3ccccc3n2)COC(=O)C(C(C)C)N(C)C(=O)C2CSSCC(C(=O)N(C)C(C(C)C)C(=O)OCC(NC(=O)c3cnc4ccccc4n3)C(=O)NC(C)C(=O)N2C)N(C)C1=O (centres undefined) (I: Quinoxaline2carbonyl-SA[NMeC][NMeV] / II: Quinoxaline2carbonyl-SA[NMeC][NMeV]; ester I:1-II:C, I:C-II:1; disulfide I:3-II:3; configuration not given here)
T/C (dose: 100.0 micrograms/kg/injection, schedule: Q04DX003 (sc), vehicle: Klucel (hydroxypropylcellulose) (HPC)): 104 % of control | T/C (dose: 200.0 micrograms/kg/injection, schedule: Q04DX003 (sc), vehicle: Klucel (hydroxypropylcellulose) (HPC)): 83 % of control | T/C (dose: 400.0 micrograms/kg/injection, schedule: Q04DX003 (sc), vehicle: Klucel (hydroxypropylcellulose) (HPC)): 54 % of control

O=C(CC(=O)C(F)(F)F)c1csc2ccccc12
T/C [5]: 81 % of control | T/C [6]: 70 % of control | T/C [7]: 93 % of control | T/C [8]: 87 % of control

CNC(=O)c1cccc2c(Nc3ccc(NS(C)(=O)=O)cc3OC)c3cccc(C)c3nc12
T/C (dose: 50.0 mg/kg/injection, schedule: Q04DX003 (sc), vehicle: water): 69 % of control

COC(=O)C(N)Cc1ccc(O)c(O)c1 (centres undefined)
T/C [1]: 118 % of control | T/C [2]: 108 % of control | T/C [3]: 106 % of control | T/C (dose: 2400.0 mg/kg/injection, schedule: Q04DX003 (sc), vehicle: saline): 108 % of control

CNC(=O)OCc1c(COC(=O)NC)c(-c2ccccc2)n(C)c1-c1ccccc1
T/C (dose: 50.0 mg/kg/injection, schedule: Q04DX003 (sc), vehicle: distilled water + Tween-80): 88 % of control | T/C (dose: 100.0 mg/kg/injection, schedule: Q04DX003 (sc), vehicle: distilled water + Tween-80): 182 % of control | T/C (dose: 200.0 mg/kg/injection, schedule: Q04DX003 (sc), vehicle: distilled water + Tween-80): 50 % of control | T/C (dose: 800.0 mg/kg/injection, schedule: Q04DX003 (sc), vehicle: distilled water + Tween-80): 52 % of control | T/C (dose: 1600.0 mg/kg/injection, schedule: Q04DX003 (sc), vehicle: distilled water + Tween-80): 57 % of control

O=c1[nH]cnc2c1ccn2C1OC(CO)C(O)C1O (centres undefined)
T/C [9]: 88 % of control | T/C (dose: 50.0 mg/kg/injection, schedule: Q04DX003 (sc), vehicle: saline): 47 % of control

O=C1c2ccccc2C(=O)c2c(NCCNCCO)ccc(NCCNCCO)c21
T/C (dose: 4.0 mg/kg/injection, schedule: Q01DX010 (sc), vehicle: water): 54 % of control | T/C (dose: 16.0 mg/kg/injection, schedule: Q01DX010 (sc), vehicle: water): 65 % of control

COc1cc(OC)c(NC(=O)ON2C(=O)c3ccccc3C2=O)cc1Cl
T/C (dose: 25.0 mg/kg/injection, schedule: Q04DX003 (sc), vehicle: saline with Tween-80): 93 % of control | T/C (dose: 50.0 mg/kg/injection, schedule: Q04DX003 (sc), vehicle: saline with Tween-80): 79 % of control | T/C (dose: 100.0 mg/kg/injection, schedule: Q04DX003 (sc), vehicle: saline with Tween-80): 68 % of control | T/C (dose: 200.0 mg/kg/injection, schedule: Q04DX003 (sc), vehicle: saline with Tween-80): 92 % of control

OCCN1CCN(CCCN2c3ccccc3Sc3ccc(C(F)(F)F)cc32)CC1
T/C (dose: 20.0 mg/kg/injection, schedule: Q01DX010 (sc), vehicle: saline): 69 % of control | T/C (dose: 40.0 mg/kg/injection, schedule: Q01DX010 (sc), vehicle: saline): 75 % of control

[N-]=[N+]=C1N=CN=C1c1ncn[nH]1
T/C (dose: 12.5 mg/kg/injection, schedule: Q01DX010 (sc), vehicle: Klucel (hydroxypropylcellulose) (HPC)): 153 % of control | T/C [4]: 55 % of control

NC(=O)c1ncn(C2OC(CO)C(O)C2O)c1O (centres undefined)
T/C [6]: 99 % of control

Cc1nc(N)nc(N)c1-c1ccc(Cl)c(Cl)c1
T/C (dose: 0.16 mg/kg/injection, schedule: Q01DX010 (sc), vehicle: saline): 85 % of control | T/C (dose: 0.32 mg/kg/injection, schedule: Q01DX010 (sc), vehicle: saline): 111 % of control | T/C (dose: 0.63 mg/kg/injection, schedule: Q01DX010 (sc), vehicle: saline): 115 % of control | T/C (dose: 1.25 mg/kg/injection, schedule: Q01DX010 (sc), vehicle: saline): 106 % of control

Nc1ncnc2c1nnn2C1OC(CO)C(O)C1O (centres undefined)
T/C (dose: 18.75 mg/kg/injection, schedule: Q04DX003 (sc), vehicle: Klucel (hydroxypropylcellulose) (HPC)): 102 % of control | T/C (dose: 37.5 mg/kg/injection, schedule: Q04DX003 (sc), vehicle: Klucel (hydroxypropylcellulose) (HPC)): 96 % of control | T/C [5]: 103 % of control | T/C [6]: 80 % of control

COc1cc2cc(c1Cl)N(C)C(=O)CC(OC(=O)CC(C)C)C1(C)OC1C(C)C1CC(O)(NC(=O)O1)C(OC)/C=C/C=C(C)C2 (centres undefined)
T/C (dose: 12.5 micrograms/kg/injection, schedule: Q01DX010 (sc), vehicle: saline + alcohol): 73 % of control | T/C (dose: 25.0 micrograms/kg/injection, schedule: Q01DX010 (sc), vehicle: saline + alcohol): 59 % of control | T/C (dose: 50.0 micrograms/kg/injection, schedule: Q01DX010 (sc), vehicle: saline + alcohol): 107 % of control

C=C/C(C)=C/[C@H](C)C(=O)C[C@H](O)CC1CC(=O)NC(=O)C1
T/C [10]: 111 % of control | T/C [11]: 61 % of control | T/C [12]: 69 % of control | T/C [13]: 70 % of control

ClCCCN1CCCCC1CCl (centres undefined)
T/C [9]: 88 % of control | T/C (dose: 25.0 mg/kg/injection, schedule: Q04DX003 (sc), vehicle: saline): 71 % of control

CC(C)NCC(O)COc1ccc(O)c(O)c1 (centres undefined)
T/C (dose: 100.0 mg/kg/injection, schedule: Q04DX003 (sc), vehicle: saline): 104 % of control | T/C (dose: 200.0 mg/kg/injection, schedule: Q04DX003 (sc), vehicle: saline): 84 % of control | T/C (dose: 400.0 mg/kg/injection, schedule: Q04DX003 (sc), vehicle: saline): 114 % of control | T/C (dose: 800.0 mg/kg/injection, schedule: Q04DX003 (sc), vehicle: saline): 54 % of control

O=C1N(Cl)C(=O)C(c2ccc(Cl)cc2)(c2ccc(Cl)cc2)N1Cl
T/C (dose: 50.0 mg/kg/injection, schedule: Q01DX010 (sc), vehicle: saline with Tween-80): 98 % of control | T/C (dose: 200.0 mg/kg/injection, schedule: Q01DX010 (sc), vehicle: saline with Tween-80): 57 % of control | T/C (dose: 400.0 mg/kg/injection, schedule: Q01DX010 (sc), vehicle: saline with Tween-80): 118 % of control

NC(C(=O)O)c1ccc(CBr)cc1 (centres undefined)
T/C (dose: 300.0 mg/kg/injection, schedule: Q04DX003 (sc), vehicle: acid diluted with saline): 96 % of control

CCN(CC)c1ccc2cc(-c3nc4ccccc4n3C)c(=O)oc2c1
T/C [5]: 105 % of control | T/C [6]: 81 % of control

OC1CCCC2CCCNC12 (centres undefined)
T/C (dose: 37.5 mg/kg/injection, schedule: Q04DX003 (sc), vehicle: saline with Tween-80): 81 % of control | T/C [10]: 93 % of control | T/C [11]: 75 % of control

OC1CCCC2CCC[N-]C12.OC1CCCC2CCC[N-]C12.[Mn+2] (centres undefined)
T/C [7]: 95 % of control | T/C [8]: 52 % of control | T/C (dose: 1200.0 mg/kg/injection, schedule: Q04DX003 (sc), vehicle: Klucel (hydroxypropylcellulose) (HPC)): 46 % of control | T/C (dose: 2400.0 mg/kg/injection, schedule: Q04DX003 (sc), vehicle: Klucel (hydroxypropylcellulose) (HPC)): 63 % of control

COc1cccc2c1C(=O)c1c(O)c3c(c(O)c1C2=O)C[C@@](O)(C(=O)CO)C[C@@H]3OC1CC(N)CC(C)O1 (some centres undefined)
T/C (dose: 1.5 mg/kg/injection, schedule: Q01DX010 (sc), vehicle: water): 23 % of control

CONc1ccn(C2OC(CO)C(O)C2O)c(=O)n1 (centres undefined)
T/C [1]: 62 % of control

NCC1CCC(C(=O)O)CC1 (centres undefined)
T/C [12]: 167 % of control | T/C [13]: 104 % of control | T/C [14]: 75 % of control | T/C (dose: 2400.0 mg/kg/injection, schedule: Q04DX003 (sc), vehicle: saline with Tween-80): 79 % of control

BrC1c2cccc3cccc(c23)C1Br (centres undefined)
T/C [13]: 155 % of control | T/C [14]: 96 % of control
